Source: ChEMBL document CHEMBL1177886, “Synthesis and biological evaluation of a novel series of 2,2-bisaminomethylated aurone analogues as anti-inflammatory and antimicrobial agents” (Eur J Med Chem, 2010)
≈ marks a conversion by molar mass, not a printed value.

Key:
Proteus vulgaris [1] = conditions: NCIM 2813
Klebsiella pneumoniae [2] = conditions: NCIM 5082
Bacillus subtilis [3] = conditions: NCIM 2546
Staphylococcus aureus [4] = conditions: NCIM 2120
Escherichia coli [5] = conditions: NCIM 2065
Bacillus subtilis [6] = test: Antibacterial activity against Bacillus subtilis NCIM 2546 after 24 hrs by disc diffusion method; format: functional; conditions: for MIC: Bacillus subtilis, NCIM 2546, 24 h
Staphylococcus aureus [7] = test: Antibacterial activity against Staphylococcus aureus NCIM 2120 after 24 hrs by disc diffusion method; format: functional; conditions: for MIC: Staphylococcus aureus, NCIM 2120, 24 h
Aspergillus fumigatus = test: Antifungal activity against Aspergillus fumigatus NCIM 902 after 72 hrs by disc diffusion method; format: functional; conditions: for MIC: Aspergillus fumigatus, NCIM 902, 72 h
Escherichia coli [8] = test: Antibacterial activity against Escherichia coli NCIM 2065 after 24 hrs by disc diffusion method; format: functional; conditions: for MIC: Escherichia coli, NCIM 2065, 24 h
Bacillus subtilis [9] = test: Antibacterial activity against Bacillus subtilis after 24 hrs by disc diffusion method
Trichoderma viride = test: Antifungal activity against Trichoderma viride TT after 72 hrs by disc diffusion method; format: functional; conditions: for MIC: Trichoderma viride, TT, 72 h
Klebsiella pneumoniae [10] = test: Antibacterial activity against Klebsiella pneumoniae NCIM 5082 after 24 hrs by disc diffusion method; format: functional; conditions: for MIC: Klebsiella pneumoniae, NCIM 5082, 24 h
Aspergillus niger = test: Antifungal activity against Aspergillus niger NCIM 545 after 72 hrs by disc diffusion method; format: functional; conditions: for MIC: Aspergillus niger, NCIM 545, 72 h
Penicillium chrysogenum = test: Antifungal activity against Penicillium chrysogenum NCIM 707 after 72 hrs by disc diffusion method; format: functional; conditions: for MIC: Penicillium chrysogenum, NCIM 707, 72 h
Proteus vulgaris [11] = test: Antibacterial activity against Proteus vulgaris NCIM 2813 after 24 hrs by disc diffusion method; format: functional; conditions: for MIC: Proteus vulgaris, NCIM 2813, 24 h
Candida albicans = test: Antifungal activity against Candida albicans NCIM 3100 after 72 hrs by disc diffusion method; format: functional; conditions: for MIC: Candida albicans, NCIM 3100, 72 h
[12] = Cytotoxicity against human THP-1 cells at 10 uM; conditions: THP-1, 10 µM
THP-1 [13] = test: Antiinflammatory activity in human THP1 cells assessed as inhibition of LPS-induced IL-6 production at 10 uM treated 30 mins before LPS challenge measured after 24 hrs by ELISA relative to control; format: functional
THP-1 [14] = test: Antiinflammatory activity in human THP1 cells assessed as inhibition of LPS-induced TNFalpha production at 10 uM treated 30 mins before LPS challenge measured after 24 hrs by ELISA relative to control; format: functional
THP-1 [15] = test: Antiinflammatory activity in human THP1 cells assessed as inhibition of LPS-induced IL-6 production at 1 uM treated 30 mins before LPS challenge measured after 24 hrs by ELISA relative to control; format: functional
THP-1 [16] = test: Antiinflammatory activity in human THP1 cells assessed as inhibition of LPS-induced TNFalpha production at 1 uM treated 30 mins before LPS challenge measured after 24 hrs by ELISA relative to control; format: functional

| Compound | inhibition zone (IZ) (Bacillus subtilis [6]) [mm] | MIC (Bacillus subtilis [6]) [µg/mL] | inhibition zone (IZ) (Staphylococcus aureus [7]) [mm] | MIC (Staphylococcus aureus [7]) [µg/mL] | inhibition zone (IZ) (Aspergillus fumigatus) [mm] | MIC (Aspergillus fumigatus) [µg/mL] | MIC (Escherichia coli [8]) [µg/mL] | inhibition zone (IZ) (Trichoderma viride) [mm] | MIC (Trichoderma viride) [µg/mL] | inhibition zone (IZ) (Klebsiella pneumoniae [10]) [mm] | MIC (Klebsiella pneumoniae [10]) [µg/mL] | inhibition zone (IZ) (Aspergillus niger) [mm] | MIC (Aspergillus niger) [µg/mL] | inhibition zone (IZ) (Penicillium chrysogenum) [mm] | MIC (Penicillium chrysogenum) [µg/mL] | inhibition zone (IZ) (Proteus vulgaris [11]) [mm] | MIC (Proteus vulgaris [11]) [µg/mL] | inhibition zone (IZ) (Candida albicans) [mm] | MIC (Candida albicans) [µg/mL] | Activity [12] [%] | further results |
| --- | --- | --- | --- | --- | --- | --- | --- | --- | --- | --- | --- | --- | --- | --- | --- | --- | --- | --- | --- | --- | --- |
| GENTAMICIN | – | – | – | – | – | – | – | – | – | – | – | – | – | – | – | – | – | – | – | – | IZ (Proteus vulgaris [1]): 24 mm; MIC (Proteus vulgaris [1]): 25 µg/mL; IZ (Klebsiella pneumoniae [2]): 24 mm; MIC (Klebsiella pneumoniae [2]): 25 µg/mL; IZ (Bacillus subtilis [3]): 21 mm; MIC (Bacillus subtilis [3]): 25 µg/mL; MIC (Staphylococcus aureus [4]): 25 µg/mL; MIC (Escherichia coli [5]): 25 µg/mL |
| COc1cc(OC)c2c(c1)OC(CN(C)C)(CN(C)C)C2=O | 14 | 50 (≈ 162 µM) | 14 | 50 (≈ 162 µM) | 18 | 25 (≈ 81.1 µM) | 50 (≈ 162 µM) | 15 | 25 (≈ 81.1 µM) | 15 | 50 (≈ 162 µM) | 16 | 50 (≈ 162 µM) | 15 | 50 (≈ 162 µM) | 15 | 50 (≈ 162 µM) | 16 | 25 (≈ 81.1 µM) | – | inhibition zone (IZ) (Bacillus subtilis [9]): 15 mm |
| COc1cc(OC)c2c(c1)OC(CN1CCCC1)(CN1CCCC1)C2=O | 20 | 25 (≈ 69.4 µM) | 15 | 25 (≈ 69.4 µM) | 22 | 25 (≈ 69.4 µM) | 25 (≈ 69.4 µM) | 15 | 50 (≈ 139 µM) | 20 | 25 (≈ 69.4 µM) | 21 | 25 (≈ 69.4 µM) | 16 | 25 (≈ 69.4 µM) | 22 | 25 (≈ 69.4 µM) | 14 | 50 (≈ 139 µM) | 83 | inhibition at 10 µM (THP-1 [13]): 100%; inhibition zone (IZ) (Bacillus subtilis [9]): 18 mm; inhibition at 10 µM (THP-1 [14]): 100% |
| CCN1CCN(CC2(CN3CCN(CC)CC3)Oc3cc(OC)cc(OC)c3C2=O)CC1 | 16 | 50 (≈ 112 µM) | 15 | 25 (≈ 56 µM) | 14 | 50 (≈ 112 µM) | 50 (≈ 112 µM) | 13 | 50 (≈ 112 µM) | 17 | 25 (≈ 56 µM) | 14 | 50 (≈ 112 µM) | 16 | 25 (≈ 56 µM) | 14 | 50 (≈ 112 µM) | 13 | 50 (≈ 112 µM) | – | inhibition zone (IZ) (Escherichia coli [8]): 16 mm |
| COc1cc(OC)c2c(c1)OC(CN1CCOCC1)(CN1CCOCC1)C2=O | 16 | 25 (≈ 63.7 µM) | 15 | 50 (≈ 127 µM) | 18 | 25 (≈ 63.7 µM) | 25 (≈ 63.7 µM) | 15 | 25 (≈ 63.7 µM) | – | > 100 | 24 | 25 (≈ 63.7 µM) | 23 | 25 (≈ 63.7 µM) | 22 | 25 (≈ 63.7 µM) | 15 | 50 (≈ 127 µM) | 66 | inhibition at 10 µM (THP-1 [13]): 100%; inhibition zone (IZ) (Escherichia coli [8]): 16 mm; inhibition at 10 µM (THP-1 [14]): 89% |
| C[C@@H]1C[C@H]2[C@@H]3CCC4=CC(=O)C=C[C@]4(C)[C@@]3(F)[C@@H](O)C[C@]2(C)[C@@]1(O)C(=O)CO [DEXAMETHASONE] | – | – | – | – | – | – | – | – | – | – | – | – | – | – | – | – | – | – | – | – | inhibition at 1 µM (THP-1 [15]): 90%; inhibition at 1 µM (THP-1 [16]): 69% |
| COc1cc(OC)c2c(c1)OC(CN1CCN(C)CC1)(CN1CCN(C)CC1)C2=O | 14 | 50 (≈ 119 µM) | – | > 100 | 15 | 50 (≈ 119 µM) | 50 (≈ 119 µM) | – | – | – | > 100 | 14 | 50 (≈ 119 µM) | 14 | 50 (≈ 119 µM) | 16 | 25 (≈ 59.7 µM) | – | > 100 | 29 | inhibition at 10 µM (THP-1 [13]): 97%; inhibition zone (IZ) (Escherichia coli [8]): 14 mm; inhibition at 10 µM (THP-1 [14]): 76% |
| CCN(CC)CC1(CN(CC)CC)Oc2cc(OC)cc(OC)c2C1=O | 18 | 25 (≈ 68.6 µM) | 16 | 25 (≈ 68.6 µM) | 17 | 25 (≈ 68.6 µM) | 25 (≈ 68.6 µM) | 16 | 25 (≈ 68.6 µM) | 17 | 25 (≈ 68.6 µM) | 17 | 25 (≈ 68.6 µM) | 15 | 50 (≈ 137 µM) | 17 | 25 (≈ 68.6 µM) | 16 | 25 (≈ 68.6 µM) | 37 | inhibition at 10 µM (THP-1 [13]): 74%; inhibition zone (IZ) (Bacillus subtilis [9]): 17 mm; inhibition at 10 µM (THP-1 [14]): 28% |
| CCCCN(CCCC)CC1(CN(CCCC)CCCC)Oc2cc(OC)cc(OC)c2C1=O | 21 | 25 (≈ 52.4 µM) | 18 | 25 (≈ 52.4 µM) | 22 | 25 (≈ 52.4 µM) | 25 (≈ 52.4 µM) | 16 | 25 (≈ 52.4 µM) | 21 | 25 (≈ 52.4 µM) | 26 | 25 (≈ 52.4 µM) | 24 | 25 (≈ 52.4 µM) | 22 | 25 (≈ 52.4 µM) | 17 | 25 (≈ 52.4 µM) | 65 | inhibition at 10 µM (THP-1 [13]): 37%; inhibition zone (IZ) (Bacillus subtilis [9]): 18 mm; inhibition at 10 µM (THP-1 [14]): 17% |
| CCN(C)CC1(CN(C)CC)Oc2cc(OC)cc(OC)c2C1=O | – | > 100 | – | > 100 | 14 | 50 (≈ 149 µM) | > 100 | – | > 100 | – | > 100 | – | > 100 | 15 | 50 (≈ 149 µM) | – | > 100 | – | > 100 | – | – |
| OC(Cn1cncn1)(Cn1cncn1)c1ccc(F)cc1F [FLUCONAZOLE] | – | – | – | – | 21 | 25 (≈ 81.6 µM) | – | 18 | 25 (≈ 81.6 µM) | – | – | 24 | 25 (≈ 81.6 µM) | 24 | 25 (≈ 81.6 µM) | – | – | 24 | 25 (≈ 81.6 µM) | – | – |
| COc1cc(OC)c2c(c1)OC(CN1CCCCC1)(CN1CCCCC1)C2=O | 18 | 25 (≈ 64.3 µM) | 16 | 25 (≈ 64.3 µM) | 16 | 50 (≈ 129 µM) | 25 (≈ 64.3 µM) | 14 | 50 (≈ 129 µM) | 18 | 25 (≈ 64.3 µM) | 17 | 25 (≈ 64.3 µM) | 18 | 25 (≈ 64.3 µM) | 15 | 50 (≈ 129 µM) | – | > 100 | 21 | inhibition at 10 µM (THP-1 [13]): 82%; inhibition at 10 µM (THP-1 [14]): 35% |
